13 compounds from patent publication US11046699B2, “Pyrazolo-pyrimidin-amino-cycloalkyl compounds and their therapeutic uses” (RAPT THERAPEUTICS, INC., priority 2018, dated 2021) can be followed below.

The assay deals with GCN2 (Homo sapiens, UniProt Q9P2K8). The experiment in a line: GCN2 enzymatic endpoint assay: phosphorylation of GFP-eIF2α measured by TR-FRET (Lanthascreen). It counts as biochemical. The essentials: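 Reaction started with 2 μM ATP and 80 nM GFP-labelled eIF2α substrate at room temperature, stopped with EDTA after 90 minutes. Phospho-eIF2α detected by terbium-labelled antibody TR-FRET; activity taken as 520 nm (fluorescein) to 495 nm (terbium) emission ratio.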

Setting [1] is: tested as described in Example 77, compound and/or hydrochloride, dihydrochloride or trifluoroacetic acid salt, read-out: IC 50 Activity.
The mark [2] stands for this setting: GCN2 biochemical IC50, 4 nM GCN2, 2 μM ATP, 80 nM GFP-eIF2α, 90 min RT, read-out: GCN2 activity.

Where two headings read alike, the source gives them in different places.

Sequence of GCN2 (Q9P2K8 whole entry): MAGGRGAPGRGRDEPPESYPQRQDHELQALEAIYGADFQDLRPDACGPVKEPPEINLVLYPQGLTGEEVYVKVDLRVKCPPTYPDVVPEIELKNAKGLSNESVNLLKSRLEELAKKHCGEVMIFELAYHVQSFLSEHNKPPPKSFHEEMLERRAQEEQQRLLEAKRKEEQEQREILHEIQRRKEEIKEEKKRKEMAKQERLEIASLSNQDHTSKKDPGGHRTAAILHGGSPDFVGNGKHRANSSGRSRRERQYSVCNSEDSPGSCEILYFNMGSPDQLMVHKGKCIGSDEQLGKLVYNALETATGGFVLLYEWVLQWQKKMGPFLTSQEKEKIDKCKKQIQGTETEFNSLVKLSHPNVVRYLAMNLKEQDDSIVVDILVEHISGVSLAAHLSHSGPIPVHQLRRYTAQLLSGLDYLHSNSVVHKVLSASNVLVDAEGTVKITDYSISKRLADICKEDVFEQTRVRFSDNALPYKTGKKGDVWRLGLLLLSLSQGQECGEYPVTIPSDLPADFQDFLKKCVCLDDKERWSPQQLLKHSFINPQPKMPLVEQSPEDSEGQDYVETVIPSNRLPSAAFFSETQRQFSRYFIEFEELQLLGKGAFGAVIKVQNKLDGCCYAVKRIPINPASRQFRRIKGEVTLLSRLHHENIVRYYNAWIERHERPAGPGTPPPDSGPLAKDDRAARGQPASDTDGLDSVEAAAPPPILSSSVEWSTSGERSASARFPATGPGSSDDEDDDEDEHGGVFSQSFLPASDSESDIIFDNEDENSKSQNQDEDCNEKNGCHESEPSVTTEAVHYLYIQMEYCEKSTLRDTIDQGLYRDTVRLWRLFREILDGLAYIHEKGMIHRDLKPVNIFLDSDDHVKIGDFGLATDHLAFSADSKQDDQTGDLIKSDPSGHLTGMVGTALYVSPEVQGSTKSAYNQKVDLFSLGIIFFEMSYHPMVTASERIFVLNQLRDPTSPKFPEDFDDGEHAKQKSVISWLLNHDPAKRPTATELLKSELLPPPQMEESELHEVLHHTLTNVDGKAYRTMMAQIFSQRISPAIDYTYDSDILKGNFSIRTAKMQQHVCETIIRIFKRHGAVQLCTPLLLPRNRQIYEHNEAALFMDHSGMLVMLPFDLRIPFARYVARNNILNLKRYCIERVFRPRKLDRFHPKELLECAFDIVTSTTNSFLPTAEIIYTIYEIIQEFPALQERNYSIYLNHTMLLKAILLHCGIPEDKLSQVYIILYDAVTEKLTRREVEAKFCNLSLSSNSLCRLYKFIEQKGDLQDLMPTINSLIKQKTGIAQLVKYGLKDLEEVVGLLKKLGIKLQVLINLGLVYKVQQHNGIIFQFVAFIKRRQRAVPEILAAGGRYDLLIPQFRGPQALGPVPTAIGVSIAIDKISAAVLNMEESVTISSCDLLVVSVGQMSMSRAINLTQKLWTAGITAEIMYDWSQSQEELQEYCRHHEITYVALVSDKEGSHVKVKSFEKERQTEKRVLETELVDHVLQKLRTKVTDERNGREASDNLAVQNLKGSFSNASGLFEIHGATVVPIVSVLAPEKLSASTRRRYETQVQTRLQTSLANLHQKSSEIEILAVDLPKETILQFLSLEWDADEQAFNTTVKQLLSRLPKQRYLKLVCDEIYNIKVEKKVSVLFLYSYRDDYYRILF

`CNC(=O)[C@@H]1CC[C@@H](Nc2ncc3c(Br)nn(-c4cc(F)c5nc(C)c(F)cc5c4)c3n2)C1` [(1R,3R)-3-((3-bromo-1-(3,8-difluoro-2-methyl-quinolin-6-yl)-1H-pyrazolo[3,4-d]pyrimidin-6-yl)amino)-N-methylcyclopentane-1-carboxamide]: the IC50 under setting [1] was 25 to 200 nM.

Turning to `CC[C@@H](N)c1cc(Cl)cc(-n2nc(Br)c3cnc(N[C@@H]4CC[C@@](C)(C(=O)NC)C4)nc32)c1`, the IC50 under setting [1] is less than 25 nM.

In the case of `N#Cc1cc(-n2nc(Br)c3cnc(N[C@@H]4CC[C@@H](C(=O)N5CCS(=N)(=O)CC5)C4)nc32)cc2cccnc12`, the IC50 under setting [1] is less than 25 nM.

As to `O=C([C@@H]1CC[C@@H](Nc2ncc3c(Br)nn(-c4ccc5ncccc5c4)c3n2)C1)N1CCNCC1` [((1R,3R)-3-((3-bromo-1-(quinolin-6-yl)-1H-pyrazolo[3,4-d]pyrimidin-6-yl)amino)cyclo-pentyl)(piperazin-1-yl)methanone], the IC50 under setting [1] lay within 25 to 200 nM.

For the compound `CNC(=O)[C@]1(C)CC[C@@H](Nc2ncc3c(Br)nn(-c4cc(F)c5ncccc5c4)c3n2)C1` [(1R,3R)-3-((3-bromo-1-(8-fluoroquinolin-6-yl)-1H-pyrazolo[3,4-d]pyrimidin-6-yl)amino)-N,1-dimethylcyclopentane-1-carboxamide], the IC50 under setting [1] is 25 to 200 nM.

`CNC(=O)[C@]1(C)CC[C@@H](Nc2ncc3c(Br)nn(-c4ccc(C5=NCCO5)cc4)c3n2)C1` [(1R,3R)-3-[[3-bromo-1-[4-(4,5-dihydro-oxazol-2-yl)phenyl]pyrazolo[3,4-d]pyrimidin-6-yl]amino]-N,1-dimethyl-cyclopentanecarboxamide]: the IC50 under setting [1] was 25 to 200 nM.

`CNC(=O)[C@]1(C)CC[C@@H](Nc2ncc3c(Br)nn(-c4ccc(Cl)c([C@H](C)N)c4)c3n2)C1` [Example 65, (1R,3R)-3-((1-(3-((S)-1-aminoethyl)-4-chlorophenyl)-3-bromo-1H-pyrazolo[3,4-d]pyrimidin-6-yl)amino)-N,1-dimethylcyclopentane-1-carboxamide]: the IC50 under setting [2] was less than 25 nM.

Turning to `COCCNC(=O)[C@@H]1CC[C@@H](Nc2ncc3c(Br)nn(-c4ccc(-c5ccncc5)cc4)c3n2)C1` [(1R,3R)-3-((3-bromo-1-(4-(pyridin-4-yl)phenyl)-1H-pyrazolo[3,4-d]pyrimidin-6-yl)amino)-N-(2-methoxyethyl)cyclopentane-1-carboxamide], the IC50 under setting [1] fell in the range of 500 to 1000 nM.

With `CC[C@@H](N)c1cc(-n2nc(Br)c3cnc(N[C@@H]4CC[C@@](C)(C(=O)NC)C4)nc32)cc2nccnc12` [Example 66, (1R,3R)-3-((1-(8-((R)-1-aminopropyl)quinoxalin-6-yl)-3-bromo-1H-pyrazolo[3,4-d]pyrimidin-6-yl)amino)-N,1-dimethylcyclopentane-1-carboxamide], the IC50 under setting [2] is less than 25 nM.

For `CNC(=O)[C@]1(C)CC[C@@H](Nc2ncc3c(Br)nn(-c4ccc(-c5nnc(C(C)(C)O)s5)cc4)c3n2)C1`, the IC50 under setting [1] was in the range of 25 to 200 nM.

As to `CNC(=O)[C@]1(C)CC[C@@H](Nc2ncc3c(Br)nn(-c4ccc5nncn5c4)c3n2)C1` [(1R,3R)-3-[[3-bromo-1-([1,2,4]triazolo [4,3-a]pyridin-6-yl)pyrazolo[3,4-d]pyrimidin-6-yl]amino]-N,1-dimethyl-cyclopentanecarboxamide], the IC50 under setting [1] was 25 to 200 nM.

Turning to `O=C([C@@H]1CC[C@@H](Nc2ncc3c(Br)nn(-c4ccc5ncccc5c4)c3n2)C1)N1C2CCC1COC2` [(3-oxa-8-azabicyclo[3.2.1]octan-8-yl)((1R,3R)-3-((3-bromo-1-(quinolin-6-yl)-1H-pyrazolo [3,4-d]pyrimidin-6-yl)amino)cyclopentyl) methanone], the IC50 under setting [1] lay within 25 to 200 nM.

On to `O=C([C@@H]1CC[C@@H](Nc2ncc3c(Br)nn(-c4ccc5ncccc5c4)c3n2)C1)N1CCC2(CNC2)C1` [((1R,3R)-3-((3-bromo-1-(quinolin-6-yl)-1H-pyrazolo[3,4-d]pyrimidin-6-yl)amino)cyclo-pentyl)(2,6-diazaspiro[3.4]octan-6-yl) methanone], for which the IC50 under setting [1] is less than 25 nM.
